Test results published in PubChem BioAssay (NCI).
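48-hour exposure; five concentrations; linearly interpolated endpoints. Abbreviation: GI50, concentration required for 50% inhibition of growth. The concentration for full growth arrest is given as TGI.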

Experiments:
Assay in all cases: NCI-60 cell line screen, 48 h
SK-MEL-2 melanoma = test system: SK-MEL-2 melanoma
HCT-116 colon = test system: HCT-116 colon
HCC-2998 colon = test system: HCC-2998 colon
SN12C renal = test system: SN12C renal
LOX IMVI melanoma = test system: LOX IMVI melanoma
A549 NSCLC = test system: A549 NSCLC
HOP-62 NSCLC = test system: HOP-62 NSCLC
SNB-75 CNS = test system: SNB-75 CNS
UACC-257 melanoma = test system: UACC-257 melanoma
COLO 205 colon = test system: COLO 205 colon

SMILES	GI50 (SK-MEL-2 melanoma) [µM]	TGI (SK-MEL-2 melanoma) [µM]	GI50 (HCT-116 colon) [µM]	TGI (HCT-116 colon) [µM]	GI50 (HCC-2998 colon) [µM]	TGI (HCC-2998 colon) [µM]	GI50 (SN12C renal) [µM]	TGI (SN12C renal) [µM]	GI50 (LOX IMVI melanoma) [µM]	TGI (LOX IMVI melanoma) [µM]	GI50 (A549 NSCLC) [µM]	TGI (A549 NSCLC) [µM]	GI50 (HOP-62 NSCLC) [µM]	TGI (HOP-62 NSCLC) [µM]	GI50 (SNB-75 CNS) [µM]	TGI (SNB-75 CNS) [µM]	GI50 (UACC-257 melanoma) [µM]	TGI (UACC-257 melanoma) [µM]	GI50 (COLO 205 colon) [µM]	TGI (COLO 205 colon) [µM]
Nc1c(C(=O)Nc2ccccn2)sc2nc3c(cc12)CCCCCC3	0.965	9.83	0.225	7.14	1.61	33.1	3.17	37.3	2.97	41.9	1.65	9.17	1.55	11	0.649	21.6	7.88	30.7	1.49	13.6
CN1CC[C@]23c4c5ccc(O)c4OC2c2[nH]ncc2C[C@H]3[C@H]1C5 (stereo not given in full)		> 100		> 100		> 100		> 100		> 100		> 100		> 100		> 100		> 100		> 100
CCOC(=O)n1c2ccccc2c(=O)n1CCO		> 100		> 100		> 100		> 100				> 100		> 100		> 100		> 100		> 100
CCOc1ccc(/C=C2/C(=O)N=C(N)N=C2N)cc1OCC		> 100		> 100		> 100		> 100		> 100		> 100				> 100		> 100		> 100
Cc1nn2c(-c3nc4cc(Cl)c(Cl)cc4[nH]3)c(-c3ccc(F)cc3)nc2s1	14.2	94.5	1.3	> 26	> 100	> 100	7.92	> 100	2.79	> 100	1.92	> 42.3	1.93	7.26	1.56	3.71	8.16	> 100	> 70.2	> 100
O=C(O)C1=C(C(=O)O)Oc2ccccc2O1		> 100		> 100		> 100		> 100		> 100		> 100		> 100		> 100		> 100		> 100
CC1(C)CC(O)CC(C)(C)N1.CC1(C)CC(O)CC(C)(C)N1.CC1(C)CC(O)CC(C)(C)N1.CC1(C)CC(O)CC(C)(C)N1.Cl.[Ti]	> 100	> 100	> 100	> 100	> 100	> 100	> 100	> 100	> 100	> 100			> 100	> 100	> 100	> 100	> 100	> 100	> 100	> 100
CC(C)c1cc(C(C)C)c(Cl)c(Cl)c1O (tested in a mixture with another compound)		46.5		> 100		64.5		54.4		> 100		> 100		> 100				39.3		39.8
